For series [1] the following is noted: cited from earlier work.
The conditions of series [2]: mouse, in vivo; cited from earlier work.
Series [3] deals with Bacillus cereus. The series is described as follows: minimum inhibitory concentration, dilution method. The class given is cell-based. The text has this:
Par exemple, on a décrit dans les brevets de l'Allemagne de l'Est Nos. 208 172 et 237 725 des complexes d'antibiotiques produits à partir de souches de Streptomyces hygroscopicus. Ces composés polyéthers sont caractérisés par une activité antibiotique importante et comparativement plus importante que celle présentée par la monensine ou la salinomycine. Par contre, l'abiérixine est douée d'activité antibiotique très faible par rapport à celle présentée par la plupart des ionophores polyéthers connus comme la monensine, la nigéricine ou la grisorixine. Par exemple, la concentration minimale inhibitrice de l'abiérixine vis-à-vis de Bacillus cereus déterminée selon la méthode de dilution est de 25 µg/ml mais de 0,05 µg/ml, 0,05 ug/ml et 3,12 gg/ml dans le cas respectivement de la monensine, de la nigéricine et de la grisorixine.

Series [4] can be described thus: solubility. It counts as physicochemical. How it is done:
Aspect: solide P.F. : 83-85° C Solubilité : se dissout dans les solvants organiques usuels, tels que les alcools inférieurs par exemple méthanol, éthanol, les esters inférieurs, par exemple l'acétate d'éthyle ou encore dans l'éther éthylique et le chloroforme. Dans l'eau, la solubilité est de 44 % environ. αj25 : +45° (c = 0,03 n, méthanol)
Aspect : mousse blanche solide. P.F. 120-123° C Solubilité : se dissout dans les solvants organiques usuels, tels que les alcools inférieurs par exemple méthanol, éthanol, les esters inférieurs par exemple l'acétate d'éthyle ou encore dans l'éther éthylique et le chloroforme. Par contre, il est insoluble dans l'eau.

Series [5] in a line: acute toxicity, oral. The conditions noted are these: mouse, in vivo, souris, voie orale, read-out: toxicité aiguë DL50. How it is done:
On a trouvé, par exemple, que la toxicité aiguë DL50 de l'abiérixine chez la souris par voie orale est comprise entre 600 et 1000 mg/kg alors que, dans les mêmes conditions, la toxicité d'autres polyéthers polycycliques se révèle beaucoup plus importante, de l'ordre de 50 mg/kg (DL50 lonomycine : 50 mg/kg, complexe de monensine- : 43,8 mg/kg, salinomycine- : 50 mg/kg).

In series [6] the test system is Eimeria tenella. In words: anticoccidial test in cockerels inoculated with Eimeria tenella. It counts as in vivo. As to conditions: for Lésion individuelle Moyenne: Reid lesion score; for IC de J - 2 à J + 8: feed conversion index; for EO x 10^3 Total: oocyst excretion J+4 to J+8; for EO %: oocyst excretion relative to CTNT; for P = poids moyen à J + 8: start weight 127 g. The text has this:
Des tests ont été effectués de manière à montrer l'efficacité de l'abiérixine comme agent anticoccidien dans lesquels on a relevé les résultats zootechniques (poids, indice de consommation) et les symptômes […] de coccidiose (morbidité, mortalité, aspect des matières fécales, excrétion ookystale, lésions).
On a utilisé à cet effet le protocole expérimental suivant : • Animaux • - Coquelets de souche génétique Warren Sex Sal Link • - Age le jour de l'inoculation (J O) : 17 jours • - Age le jour de l'abattage (J +8) : 25 jours
Inoculum Dose : 300 000 oocystes sporulés d'Eimeria tenella
Alimentation • - Aliment utilisé : aliment type poulet de chair, 1er âge • - Anticoccidien utilisé : l'abiérixine à la dose de 40 ou 50 ppm/jour depuis J-2 jusqu'à J +8
Lots • - Nombre d'animaux par lot : 4 • - Répartition des lots : • NCNT : animaux non contaminés, non traités • CTNT : animaux contaminés, non traités • CTT, : animaux contaminés, traités avec 40 ppm d'abiérixine • CTT2 : animaux contaminés, traités avec 50 ppm d'abiérixine
Les critères • - Les gains de poids (GP) de J-2 à J +8 • - L'excrétion ookystale (EO) journalière de J+4 à J+8 • - La morbidité (M) notée de 0 à 4 • - L'aspect des fécès noté de 0 : fécès normales à 4 : fécès diarrhéiques ou hémorragiques (MF) • - La mortalité (M %) exprimée en pourcentage • - Les lésions (L) notées selon la notation de RFID (W. Malcolm REID, "A diagnostic chart of nine species of fowl coccidia - Georgia Agricultural Experiment Stations - Dec. 1964, Technical Bulletin N. S. 39) • - Les indices de consommation (IC)

For series [7], the system named is flore ruménale. In words: in vitro rumen flora fermentation, nitrogen use. As to conditions: in the absence of protein nitrogen.
Series [8] has as its system Streptomyces hygroscopicus NRRL 3602. In words: sensitivity of producer strain to nigericin (MIC). The class given is cell-based.
Series [9] deals with Streptomyces hygroscopicus NRRL B 1865. In words: sensitivity of producer strain to nigericin (MIC). It counts as cell-based.
For series [10], the system named is Streptomyces C.N.C.M.-I-321. In words: sensitivity of producer strain to nigericin (MIC). It counts as cell-based.
[11] abbreviates: souris, voie orale, comparison polyethers.
[12] abbreviates: CTT1: 40 ppm, J + 6, score 0 to 4.
The mark [13] stands for this setting: CTT1: 40 ppm, J + 7, score 0 to 4.
The mark [14] stands for this setting: CTT2: 50 ppm, J + 6, score 0 to 4.
The mark [15] stands for this setting: CTT2: 50 ppm, J + 7, score 0 to 4.

In brackets after ≈: the same amount, converted by molar mass. Read-outs that look alike come from different tables or passages of the source.

The values below come from EP0179751B1, “Ionophore polyether, process for its preparation and its use” (SANOFI, priority 1984, dated 1986).

complexe de monensine: the DL50 in series [1] (setting [11]) is given as 43,8 mg/kg.
For `CC[C@@H](C(=O)[C@@H](C)[C@@H](O)[C@H](C)[C@@H]1O[C@@H]([C@@H](CC)C(=O)O)CC[C@@H]1C)[C@H]1O[C@]2(C=C[C@@H](O)[C@]3(CC[C@@](C)([C@H]4CC[C@](O)(CC)[C@H](C)O4)O3)O2)[C@H](C)C[C@@H]1C` [salinomycine], the DL50 in [1] (mouse, in vivo, po) is given as 50 mg/kg; in series [2], 18 mg/kg.
In the case of lonomycine, in series [1] (setting [11]), the DL50 is listed as 50 mg/kg.
On to `CO[C@@H]1C[C@@H](C[C@H]2CC[C@H](C)C(C(C)C(=O)O)O2)O[C@]2(OC(C)(C3CCC(C)(C4O[C@@H]([C@H]5O[C@](C)(O)[C@H](C)C[C@@H]5C)C[C@@H]4C)O3)CC2C)[C@@H]1C` (stereo partly shown) [grisorixine], for which the concentration minimale inhibitrice in [3] was 3,12 gg/ml.
Turning to `COC1CC(CC(O)CCC(C)C=C(C)C(=O)O)OC2(OC(C)(C3CCC(C)(C4OC(C5OC(O)(CO)C(C)CC5C)CC4C)O3)CC2C)C1C` (stereo not shown) [abiérixine monohydratée], in series [4] (méthanol, éthanol, acétate d'éthyle, éther éthylique, chloroforme), the “Solubilité dans les solvants organiques usuels” value is given as “se dissout”. Moreover, the solubility in [4] (water, read-out: Solubilité dans l'eau) is around 440 mg/mL (≈ 607 mM).
On to `COC1CC(CC(O)CCC(C)C=C(C)C(=O)O)OC2(OC(C)(C3CCC(C)(C4OC(C5OC(O)(CO)C(C)CC5C)CC4C)O3)CC2C)C1C` (stereo not shown) [abiérixine], for which the LD50 in series [5] was in the range of 600 to 1000 mg/kg. For the same molecule, in series [6] (40 ppm/jour for 10 days, cockerels infected with E. tenella), the “croissance pondérale” value is “augmente la croissance pondérale”. Moreover, the “M % (mortalité)” value in series [6] (CTT1: 40 ppm) and in series [6] (CTT2: 50 ppm) was 0% each time. The “GP = gain de poids moyen de J - 2 à J + 8” value in series [6] (CTT1: 40 ppm in feed J-2 to J+8) came out at 93 g; in series [6] (CTT2: 50 ppm in feed J-2 to J+8) it was 63 g. Besides, the “MF (aspect des fécès)” value in series [6] (CTT1: 40 ppm, J + 5, score 0 normal to 4 diarrhoeic or haemorrhagic) is on record as 4; in series [6] (setting [12]), 1; in [6] (setting [13]), 0; in [6] (CTT2: 50 ppm, J + 5, score 0 normal to 4 diarrhoeic or haemorrhagic), 3; in series [6] (setting [14]) it was 1; in [6] (setting [15]), 0. The “M (morbidité)” value in series [6] (CTT1: 40 ppm, J + 5, score 0 to 4) is listed as 3; in [6] (setting [12]), 0; in series [6] (setting [13]), 0; in series [6] (CTT2: 50 ppm, J + 5, score 0 to 4), 3; in series [6] (setting [14]) it was 0; in [6] (setting [15]) it was 0. The “Lésion individuelle Moyenne” value is on record as 2,5 in series [6] (CTT1: 40 ppm) and 3,5 in series [6] (CTT2: 50 ppm). Moreover, the results for the “IC de J - 2 à J + 8” value in [6] (CTT1: 40 ppm) and in series [6] (CTT2: 50 ppm) were 2,8 and 3,35, respectively. Moreover, the results for the “EO x 10^3 Total” value in series [6] (CTT1: 40 ppm) and in series [6] (CTT2: 50 ppm) were 4165 x 10^3 and 2324 x 10^3, respectively. For the same molecule, the figures for the EO % in [6] (CTT1: 40 ppm) and in [6] (CTT2: 50 ppm) were 74,0% and 41,3%, respectively. The “P = poids moyen à J + 8” value was 219 g in series [6] (CTT1: infected cockerels, 40 ppm in feed J-2 to J+8) and 190 g in series [6] (CTT2: infected cockerels, 50 ppm in feed J-2 to J+8). Further, in series [3] (read-out: concentration minimale inhibitrice), the MIC amounted to 25 mg/L (≈ 0.0345 mM). The “diminution de l'efficacité de la synthèse microbienne” value in series [7] was 10%.
Regarding `COC1CC(CC(O)CCC(C)C=C(C)C(=O)O)OC2(OC(C)(C3CCC(C)(C4OC(C5OC(O)(CO)C(C)CC5C)CC4C)O3)CC2C)C1C` (stereo not shown) [sel de sodium de l'abiérixine], the “Solubilité dans l'eau” value in series [4] (water, in words) is listed as “insoluble”.
Turning to nigéricine, the “Sensibilité à la nigéricine (C.M.I)” value in [8], in [9] and in series [10] was above 500 µg/mL in each case. Further, in series [3], the concentration minimale inhibitrice is 0,05 ug/ml. Moreover, the “diminution de l'efficacité de la synthèse microbienne” value in series [7] is given as above 30%.
